Measured values published in patent US11266626B2, “Reduction of ER-MAM-localized APP-C99 and methods of treating alzheimer's disease” (THE TRUSTEES OF COLUMBIA UNIVERSITY IN THE CITY OF NEW YORK, priority 2015, dated 2022).
“Also recorded” adds a separate entry of the source.

Columns and labels:
[1] = tested on: acid (aSMase) and neutral (nSMase) sphingomyelinases; test: Analysis of sphingomyelinase activity; assay type: cell-based, mouse; details: PS-DKO MEFs; BI 100 nM; Aβ40:Aβ42 10:1, 6 ng/ml total
Description: (§1) One hundred μg of protein were assayed in 100 mM of the appropriate buffer (Tris/glycine for pH 7.0-9.0 and sodium acetate for pH 4.0-5.0), 1.55 mM Triton X-100, 0.025% BSA, 1 mM MgCl2, and 400 μM bovine brain sphingomyelin spiked with 22000 dpm of [3H]-bovine sphingomyelin ([…]). Reactions were carried out in borosilicate glass culture tubes at 37° C., overnight, followed by quenching with 1.2 ml of ice-cold 10% trichloroacetic acid, incubation at 4° C. for 30 min, and centrifugation at 2000 rpm at 4° C. for 20 min. One ml of supernatant was transferred to clean tubes, 1 ml of ether was added, the mixture vortexed, and centrifuged at 2000 rpm for 5 min. Eight hundred μl of the bottom phase was transferred to scintillation vials, 5 ml of Scintiverse BD (Fisher Scientific, Fair Lawn, N.J.) was added, and samples were counted. […]
(§2) Reactions were carried out in borosilicate glass culture tubes at 37° C., overnight, followed by quenching with 1.2 ml of ice-cold 10% trichloroacetic acid, incubation at 4° C. for 30 min, and centrifugation at 2000 rpm at 4° C. for 20 min. […] Eight hundred μl of the bottom phase was transferred to scintillation vials, 5 ml of Scintiverse BD (Fisher Scientific, Fair Lawn, N.J.) was added, and samples were counted. […]

FAD fibroblasts = test: Seahorse analysis of mitochondrial respiration (OCR); assay type: cell-based, human; details: FAD patient fibroblasts; BI
Description: (§3) Respirometry of cultured cells was performed using the XF24e Extracellular Flux Analyzer (Seahorse Bioscience). Oxygen consumption was measured in basal conditions (Seahorse media with 25 mM glucose and 2 mM pyruvate) and after the sequential addition of 1 μM oligomycin (Complex V inhibitor), 0.75 μM FCCP (uncoupler) and 1 μM rotenone/1 μM antimycin A (Complex I and Complex III inhibitors respectively).
(§4) Respirometry of cultured cells was performed using the XF24e Extracellular Flux Analyzer (Seahorse Bioscience). Oxygen consumption was measured in basal conditions (Seahorse media with 25 mM glucose and 2 mM pyruvate) and after the sequential addition of 1 μM oligomycin (complex V inhibitor), 0.75 μM FCCP (uncoupler), and 1 μM rotenone/1 μM antimycin A (complex I and complex III inhibitors, respectively). All results were averages of five or more biological replicates. Every biological replicate consisted of three technical replicates. For every technical replicate, we plated equal number of cells (25,000 cell/well when MEFs were used, and 50,000 cells/well when human primary fibroblasts were analyzed). The number of cells was also counted after every respirometry assay to correct for cell death. All oxygen consumption (OCR) data were normalized by the number of viable cells or by protein quantity when isolated mitochondria were used.

[2] = tested on: acid (aSMase) and neutral (nSMase) sphingomyelinases; test: Analysis of sphingomyelinase activity; assay type: cell-based, human; details: SH-SY5Y cells; DAPT 10 μM
Description: as §1, §2

APP-DKO cells = test: Seahorse analysis of mitochondrial respiration (OCR); assay type: cell-based, mouse; details: APP-DKO cells expressing C99; DAPT added
Description: as §3
(§5) To analyze the effect of Aβ addition, a mix of Aβ40/Aβ42 at a ratio 10:1 was added to the cultured cells to a final concentration of 6000 pg/ml for 24 h. For Aβ42 oligomer formation, 5 mM of Aβ42 in DMSO was diluted to 100 μM in ice-cold media, vortexed for 30 seconds, and incubated at 4° C. for 24 h. Aβ42 Oligomers were added to the cultured cells to a final concentration of 5 or 10 μM for 24 h.
as §4
as §5, with “6,000” for “6000”, “s,” for “seconds,”, “Aβ42 Oligomers were added to the cultured cells to a final concentration of 5 or 10 μM for 24 h.” left out

SH-SY5Y cells [3] = test: Staining of lipid droplets with LipidTox Green; assay type: cell-based, human; details: DAPT 10 μM alone or with BI 100 nM
HeLa cells = test: Staining of lipid droplets with LipidTox Green; assay type: cell-based, human; details: DAPT 10 μM alone or with BI 100 nM
Description: Staining of lipid droplets was performed using HCS LipidTox™ Deep Green neutral lipid stain (Invitrogen H34475) according to the manufacturer's instructions. Lipid droplet staining was quantified using ImageJ. The different values represent the product of the intensity and the area covered by the fluorescent signal above background in every cell examined.

SH-SY5Y cells [4] = test: Seahorse analysis of mitochondrial respiration (OCR); assay type: cell-based, human; details: 10 μM DAPT vs untreated
Description: as §3, §4

Question: Which results are given for C[C@@H](NC(=O)c1cc(C(=O)N[C@@H](Cc2ccccc2)[C@H](O)CNC2CC2)cc(N(C)S(C)(=O)=O)c1)c1ccccc1 [BI, β-secretase inhibitor IV]?
Answer: acid (aSMase) and neutral (nSMase) sphingomyelinase activity / sphingolipid turnover [1]: reduced significantly; also recorded: attenuation of sphingolipid turnover; also recorded: attenuation of sphingolipid synthesis and hydrolysis by sphingomyelinases; mitochondrial respiration (OCR) (FAD fibroblasts): reversed the defect in mitochondrial respiration; also recorded: rescued the respiration defects

Question: C[C@H](NC(=O)Cc1cc(F)cc(F)c1)C(=O)N[C@H](C(=O)OC(C)(C)C)c1ccccc1 [DAPT] was tested. Which SMase activity [2] did it give?
Answer: significantly increased SMase activities; also recorded: increase in SMase activity

Question: And the “mitochondrial respiration (OCR)” value (APP-DKO cells)?
Answer: accentuated

Question: And the “accumulation of lipid droplets (LDs)” value (SH-SY5Y cells [3])?
Answer: LDs also accumulated; also recorded: Lipid droplets also accumulated

Question: And the “accumulation of lipid droplets (LDs)” value (HeLa cells)?
Answer: LDs also accumulated; also recorded: Lipid droplets also accumulated

Question: What about the “mitochondrial respiration (OCR)” value (SH-SY5Y cells [4]) of the same compound?
Answer: significant decrease in respiration; also recorded: significant reduction in respiration
